Assay results as given in PubChem BioAssay AID328 (DTP/NCI, 2004).
Several values for one entry are separate records, joined by “and”; a condition that tells them apart may be missing. Identical values can stand only once. Inconclusive results and toxic doses are left out.

Test system: BDF1 mice, P388 leukemia ip, median survival T/C
Assay: NCI In Vivo Anticancer Drug Screen. Data for tumor model P388 Leukemia (intraperitoneal) in B6D2F1 (BDF1) mice
Settings: endpoint: median survival time, higher = longer survival
How it was run: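 In tumour-bearing mice, survival after compound treatment is set against the vehicle group and given as a quotient.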

[1] = dose: 50.0 mg/kg/injection, schedule: Q01DX009 (ip), vehicle: saline
[2] = dose: 100.0 mg/kg/injection, schedule: Q01DX009 (ip), vehicle: saline
[3] = dose: 200.0 mg/kg/injection, schedule: Q01DX009 (ip), vehicle: saline
[4] = dose: 400.0 mg/kg/injection, schedule: Q01DX009 (ip), vehicle: saline
[5] = dose: 25.0 mg/kg/injection, schedule: Q01DX009 (ip), vehicle: saline with Tween-80
[6] = dose: 50.0 mg/kg/injection, schedule: Q01DX009 (ip), vehicle: saline with Tween-80
[7] = dose: 100.0 mg/kg/injection, schedule: Q01DX009 (ip), vehicle: saline with Tween-80
[8] = dose: 200.0 mg/kg/injection, schedule: Q01DX009 (ip), vehicle: saline with Tween-80
[9] = dose: 100.0 mg/kg/injection, schedule: Q04DX003 (ip), vehicle: saline with Tween-80
[10] = dose: 400.0 mg/kg/injection, schedule: Q04DX003 (ip), vehicle: saline with Tween-80
[11] = dose: 25.0 mg/kg/injection, schedule: Q04DX003 (ip), vehicle: saline with Tween-80

Q: With `CCOC(=O)CCC(C)(c1ccc(O)cc1)c1ccc(O)cc1` as the compound, how does the T/C (dose: 50.0 mg/kg/injection, schedule: Q01DX009 (ip), vehicle: gum acacia) read?
A: 95 % of control

Q: And the T/C (dose: 100.0 mg/kg/injection, schedule: Q01DX009 (ip), vehicle: gum acacia)?
A: 108 % of control

Q: What about the T/C (dose: 100.0 mg/kg/injection, schedule: Q04DX003 (ip), vehicle: gum acacia) of the same compound?
A: 104 % of control

Q: And the T/C (dose: 200.0 mg/kg/injection, schedule: Q01DX009 (ip), vehicle: gum acacia)?
A: 100 % of control

Q: And the T/C (dose: 200.0 mg/kg/injection, schedule: Q04DX003 (ip), vehicle: gum acacia)?
A: 104 % of control

Q: And the T/C (dose: 400.0 mg/kg/injection, schedule: Q04DX003 (ip), vehicle: gum acacia)?
A: 104 % of control

Q: Which T/C (dose: 100.0 mg/kg/injection, schedule: Q04DX003 (ip), vehicle: saline) does the source give for `CC(=O)[C@H]1[C@H](O)C[C@H]2[C@@H]3CCC4=CC(=O)CC[C@]4(C)[C@@]3(F)[C@@H](O)C[C@@]21C` here?
A: 100 % of control

Q: And the T/C (dose: 200.0 mg/kg/injection, schedule: Q04DX003 (ip), vehicle: saline)?
A: 113 % of control

Q: And the T/C (dose: 400.0 mg/kg/injection, schedule: Q04DX003 (ip), vehicle: saline)?
A: 113 % of control

Q: For `CCOC(=O)C(NC(C)=O)(C(=O)OCC)C(C)C(O)c1ccc(OC)c(OC)c1O` (centres undefined), which T/C (dose: 25.0 mg/kg/injection, schedule: Q01DX009 (ip), vehicle: saline) is on record?
A: 100 % of control

Q: What about the T/C [1] of the same compound?
A: 100 % of control

Q: And the T/C [2]?
A: 109 % of control

Q: And the T/C [3]?
A: 122 % of control

Q: And the T/C [4]?
A: 100 % of control

Q: Which results are given for `Cc1ccc(NC(=O)Oc2c(C)cc(Cl)cc2C)c([N+](=O)[O-])c1`?
A: T/C [5]: 90 % of control; T/C [6]: 101 % of control

Q: `Cc1ccc(NS(=O)(=O)c2ccc([N+](=O)[O-])cc2)cc1` was tested. Which T/C (dose: 12.5 mg/kg/injection, schedule: Q01DX009 (ip), vehicle: saline with Tween-80) did it give?
A: 90 % of control

Q: What about the T/C (dose: 33.0 mg/kg/injection, schedule: Q01DX009 (ip), vehicle: saline with Tween-80) of the same compound?
A: 100 % of control

Q: And the T/C [6]?
A: 90 % of control and 100 % of control

Q: And the T/C (dose: 75.0 mg/kg/injection, schedule: Q01DX009 (ip), vehicle: saline with Tween-80)?
A: 95 % of control

Q: What about the T/C [7] of the same compound?
A: 100 % of control

Q: With `CCOC1OCN(c2cccc(Cl)c2)CC1(C)C` (centres undefined) as the compound, how does the T/C [6] read?
A: 98 % of control

Q: What about the T/C [7] of the same compound?
A: 112 % of control

Q: And the T/C [8]?
A: 114 % of control

Q: Which T/C (dose: 100.0 mg/kg/injection, schedule: Q04DX003 (ip), vehicle: Klucel (hydroxypropylcellulose) (HPC)) does the source give for `CN(C)c1ccc(/C=C/c2nc3ccccc3o2)cc1` here?
A: 90 % of control

Q: And the T/C (dose: 200.0 mg/kg/injection, schedule: Q04DX003 (ip), vehicle: Klucel (hydroxypropylcellulose) (HPC))?
A: 90 % of control

Q: And the T/C (dose: 400.0 mg/kg/injection, schedule: Q04DX003 (ip), vehicle: Klucel (hydroxypropylcellulose) (HPC))?
A: 100 % of control

Q: For `OC(Cc1nc(-c2ccccc2)c(-c2ccccc2)s1)(C(F)(F)F)C(F)(F)F`, which T/C [9] is on record?
A: 100 % of control

Q: And the T/C (dose: 200.0 mg/kg/injection, schedule: Q04DX003 (ip), vehicle: saline with Tween-80)?
A: 104 % of control

Q: And the T/C [10]?
A: 100 % of control

Q: Which T/C [5] does the source give for `O=[N+]([O-])OCc1c(Cl)nc(Cl)c(Cl)c1Cl` here?
A: 115 % of control

Q: And the T/C [11]?
A: 95 % of control

Q: And the T/C [6]?
A: 110 % of control

Q: What about the T/C (dose: 50.0 mg/kg/injection, schedule: Q04DX003 (ip), vehicle: saline with Tween-80) of the same compound?
A: 100 % of control

Q: And the T/C [9]?
A: 108 % of control

Q: `Cc1nc2nc(N)nc(N)c2nc1Sc1ccc(Cl)cc1` was tested. Which T/C [9] did it give?
A: 91 % of control

Q: What about the T/C [10] of the same compound?
A: 88 % of control

Q: For `CCC(=O)O[C@H]1CC[C@H]2[C@@H]3[C@H](C)CC4=CC(=O)CC[C@]4(C)[C@H]3CC[C@]12C`, which T/C [2] is on record?
A: 95 % of control

Q: And the T/C [3]?
A: 100 % of control

Q: What about the T/C [4] of the same compound?
A: 115 % of control

Q: For `O=c1cc(O)[nH]c(=S)[nH]1`, which T/C [6] is on record?
A: 103 % of control

Q: What about the T/C [7] of the same compound?
A: 99 % of control

Q: And the T/C [8]?
A: 88 % of control

Q: `O=[N+]([O-])c1cccc(C[n+]2ccccc2C2OCCO2)c1` was tested. Which T/C (dose: 8.75 mg/kg/injection, schedule: Q01DX009 (ip), vehicle: saline) did it give?
A: 104 % of control

Q: And the T/C (dose: 17.5 mg/kg/injection, schedule: Q01DX009 (ip), vehicle: saline)?
A: 100 % of control

Q: What about the T/C (dose: 26.25 mg/kg/injection, schedule: Q04DX003 (ip), vehicle: saline) of the same compound?
A: 100 % of control

Q: And the T/C (dose: 35.0 mg/kg/injection, schedule: Q01DX009 (ip), vehicle: saline)?
A: 109 % of control

Q: And the T/C (dose: 52.5 mg/kg/injection, schedule: Q04DX003 (ip), vehicle: saline)?
A: 95 % of control

Q: Which T/C [1] does the source give for `NC1=NC(=O)/C(=C/c2ccccc2)S1` here?
A: 90 % of control

Q: And the T/C [2]?
A: 100 % of control

Q: And the T/C [3]?
A: 100 % of control

Q: For `OCC#CC#CCO`, which T/C (dose: 25.0 mg/kg/injection, schedule: Q01DX001 (ip), vehicle: saline) is on record?
A: 95 % of control

Q: What about the T/C (dose: 50.0 mg/kg/injection, schedule: Q01DX001 (ip), vehicle: saline) of the same compound?
A: 118 % of control

Q: And the T/C (dose: 100.0 mg/kg/injection, schedule: Q01DX001 (ip), vehicle: saline)?
A: 100 % of control and 109 % of control

Q: What does the source list for `CN1C(=O)Cc2[nH]ccc2C1=O`?
A: T/C (dose: 3.13 mg/kg/injection, schedule: Q04DX003 (ip), vehicle: saline with Tween-80): 106 % of control; T/C (dose: 6.25 mg/kg/injection, schedule: Q04DX003 (ip), vehicle: saline with Tween-80): 109 % of control; T/C (dose: 12.5 mg/kg/injection, schedule: Q04DX003 (ip), vehicle: saline with Tween-80): 119 % of control and 120 % of control; T/C [11]: 118 % of control

Q: What does the source list for `Cc1cc(N(C)C)cc(C)c1/C=C\c1ccnc2ccccc12`?
A: T/C (dose: 100.0 mg/kg/injection, schedule: Q04DX002 (ip), vehicle: saline with Tween-80): 112 % of control; T/C (dose: 200.0 mg/kg/injection, schedule: Q04DX002 (ip), vehicle: saline with Tween-80): 107 % of control; T/C (dose: 400.0 mg/kg/injection, schedule: Q04DX002 (ip), vehicle: saline with Tween-80): 117 % of control

Q: What does the source list for `COc1cc2cnccc2cc1O`?
A: T/C (dose: 6.25 mg/kg/injection, schedule: Q04DX003 (ip), vehicle: water): 97 % of control; T/C (dose: 12.5 mg/kg/injection, schedule: Q04DX003 (ip), vehicle: water): 98 % of control; T/C (dose: 25.0 mg/kg/injection, schedule: Q04DX003 (ip), vehicle: water): 118 % of control; T/C (dose: 50.0 mg/kg/injection, schedule: Q04DX003 (ip), vehicle: water): 95 % of control; T/C (dose: 100.0 mg/kg/injection, schedule: Q04DX003 (ip), vehicle: water): 98 % of control

Q: Which T/C (dose: 12.5 mg/kg/injection, schedule: Q01DX005 (ip), vehicle: saline) does the source give for `CN=NNCc1ccccc1` here?
A: 117 % of control

Q: What about the T/C (dose: 25.0 mg/kg/injection, schedule: Q01DX005 (ip), vehicle: saline) of the same compound?
A: 86 % of control

Q: `Oc1cc(N2CC2)c(O)cc1N1CC1` was tested. Which T/C (dose: 0.02 mg/kg/injection, schedule: Q01DX009 (ip), vehicle: saline) did it give?
A: 150 % of control

Q: What about the T/C (dose: 0.03 mg/kg/injection, schedule: Q01DX009 (ip), vehicle: saline) of the same compound?
A: 154 % of control

Q: And the T/C (dose: 0.1 mg/kg/injection, schedule: Q01DX009 (ip), vehicle: saline)?
A: 171 % of control

Q: And the T/C (dose: 0.13 mg/kg/injection, schedule: Q01DX009 (ip), vehicle: saline)?
A: 200 % of control and 213 % of control

Q: And the T/C (dose: 0.2 mg/kg/injection, schedule: Q01DX009 (ip), vehicle: saline)?
A: 186 % of control and 204 % of control

Q: And the T/C (dose: 0.3 mg/kg/injection, schedule: Q01DX009 (ip), vehicle: saline)?
A: 204 % of control

Q: And the T/C (dose: 0.44 mg/kg/injection, schedule: Q01DX009 (ip), vehicle: saline)?
A: 200 % of control

Q: And the T/C (dose: 0.47 mg/kg/injection, schedule: Q04DX003 (ip), vehicle: saline)?
A: 150 % of control

Q: What about the T/C (dose: 0.68 mg/kg/injection, schedule: Q01DX009 (ip), vehicle: saline) of the same compound?
A: 263 % of control

Q: And the T/C (dose: 0.72 mg/kg/injection, schedule: Q04DX003 (ip), vehicle: saline)?
A: 200 % of control

Q: And the T/C (dose: 1.0 mg/kg/injection, schedule: Q01DX009 (ip), vehicle: saline)?
A: 268 % of control

Q: And the T/C (dose: 1.08 mg/kg/injection, schedule: Q04DX003 (ip), vehicle: saline)?
A: 220 % of control

Q: And the T/C (dose: 1.65 mg/kg/injection, schedule: Q04DX003 (ip), vehicle: saline)?
A: 225 % of control

Q: And the T/C (dose: 2.5 mg/kg/injection, schedule: Q04DX003 (ip), vehicle: saline)?
A: 225 % of control and 150 % of control

Q: And the T/C (dose: 3.75 mg/kg/injection, schedule: Q04DX003 (ip), vehicle: saline)?
A: 90 % of control

Q: What about the T/C (dose: 16.0 micrograms/kg/injection, schedule: Q01DX009 (ip), vehicle: saline) of the same compound?
A: 105 % of control

Q: And the T/C (dose: 25.0 micrograms/kg/injection, schedule: Q01DX009 (ip), vehicle: saline)?
A: 102 % of control

Q: What about the T/C (dose: 38.0 micrograms/kg/injection, schedule: Q01DX009 (ip), vehicle: Klucel (hydroxypropylcellulose) (HPC)) of the same compound?
A: 190 % of control

Q: What about the T/C (dose: 58.0 micrograms/kg/injection, schedule: Q01DX009 (ip), vehicle: Klucel (hydroxypropylcellulose) (HPC)) of the same compound?
A: 200 % of control

Q: What about the T/C (dose: 88.0 micrograms/kg/injection, schedule: Q01DX009 (ip), vehicle: saline) of the same compound?
A: 179 % of control

Q: And the T/C (dose: 132.0 micrograms/kg/injection, schedule: Q01DX009 (ip), vehicle: saline)?
A: 120 % of control
